From ChEMBL document CHEMBL1671765, “Microbiologic and clinical implications of bacteremia due to extended-spectrum-beta-lactamase-producing Klebsiella pneumoniae with or without plasmid-mediated AmpC beta-lactamase DHA-1” (2010)
≈ marks a conversion by molar mass, not a printed value.

What was measured:
Format in all cases: functional
[1] = test system: Klebsiella pneumoniae; test: Antibacterial activity against ESBL-producing Klebsiella pneumoniae by Etest
[2] = test system: Klebsiella pneumoniae; test: Antibacterial activity against plasmid-mediated AmpC beta-Lactamase DHA-1 and ESBL-producing Klebsiella pneumoniae by Etest
[3] = test system: Klebsiella pneumoniae; test: Antibacterial activity against ESBL-producing Klebsiella pneumoniae by Etest in presence of Tazobactam
[4] = test system: Klebsiella pneumoniae; test: Antibacterial activity against plasmid-mediated AmpC beta-Lactamase DHA-1 and ESBL-producing Klebsiella pneumoniae by Etest in presence of Tazobactam

Structure (SMILES)	MIC50 [1] [µg/mL]	MIC90 [1] [µg/mL]	MIC50 [2] [µg/mL]	MIC90 [2] [µg/mL]	MIC [1] [µg/mL]	MIC [2] [µg/mL]	MIC50 [3] [µg/mL]	MIC90 [3] [µg/mL]	MIC50 [4] [µg/mL]	MIC90 [4] [µg/mL]
NCC[C@H](O)C(=O)N[C@@H]1C[C@H](N)[C@@H](O[C@H]2O[C@H](CN)[C@@H](O)[C@H](O)[C@H]2O)[C@H](O)[C@H]1O[C@H]1O[C@H](CO)[C@@H](O)[C@H](N)[C@H]1O [AMIKACIN]	4 (≈ 6.83 µM)	32 (≈ 54.6 µM)	> 256	> 256						
O=C(O)c1cn(C2CC2)c2cc(N3CCNCC3)c(F)cc2c1=O [CIPROFLOXACIN]	0.125 (≈ 0.377 µM)	8 (≈ 24.1 µM)	> 32	> 32						
C[C@@H](O)[C@H]1C(=O)N2C(C(=O)O)=C(S[C@@H]3CN[C@H](C(=O)Nc4cccc(C(=O)O)c4)C3)[C@H](C)[C@H]12 [ERTAPENEM]	0.015 (≈ 0.0315 µM)	0.5 (≈ 1.05 µM)	0.5 (≈ 1.05 µM)	2 (≈ 4.21 µM)	0.015 (≈ 0.0315 µM)	0.5 (≈ 1.05 µM)				
C[C@@H](O)[C@H]1C(=O)N2C(C(=O)O)=C(SCCNC=N)C[C@H]12 [IMIPENEM ANHYDROUS]	0.25 (≈ 0.835 µM)	0.5 (≈ 1.67 µM)	0.5 (≈ 1.67 µM)	2 (≈ 6.68 µM)						
C[C@@H](O)[C@H]1C(=O)N2C(C(=O)O)=C(S[C@@H]3CN[C@H](C(=O)N(C)C)C3)[C@H](C)[C@H]12 [MEROPENEM]	0.03 (≈ 0.0782 µM)	0.06 (≈ 0.156 µM)	0.12 (≈ 0.313 µM)	0.5 (≈ 1.3 µM)						
CCN1CCN(C(=O)N[C@@H](C(=O)N[C@@H]2C(=O)N3[C@@H]2SC(C)(C)[C@@H]3C(=O)O)c2ccccc2)C(=O)C1=O [PIPERACILLIN]							8	32	8	64
